In patent publication US20110059104A1, “Apo-2L receptor agonist and CPT-11 synergism” (Genentech, Inc., priority 2000, published 2011):
“Also recorded” adds a separate entry of the source. Where a SMILES comes first, the peptide text is derived from it. The star is where a group is joined. Cbz = O=C(OCc1ccccc1)*; CH2F = FC*

What was measured:
[1] = test system: p53 protein in HCT116 cells; test: p53 protein western blot, HCT116; format: cell-based, human; details: HCT116 tumor cells; 2 and 24 hours; hydrochloride trihydrate
Method: (§1) For Western blotting, cells were lysed in 20 mM Tris-HCl, pH 7.4 containing 10% glycerol, 1% Triton-x100, 150 mM NaCl and protease inhibitors (1 mM PMSF, 10 μg/ml Aprotinin, 10 μg/ml Leupeptin, Sigma). Aliquots of 50 μg of total protein per well were separated in a NuPAGE 4-12% Bis-Tris gel with NuPAGE MES SDS running buffer (Novex; San Diego, Calif.). The gels were transferred to […] pure nitrocellulose membrane (Bio-Rad) by semi-dry transfer cell (Bio-dad; Hercules, Calif.) with NuPAGE transfer buffer. The membranes were blocked with PBS containing 5% nonfat dry milk and incubated with primary antibodies against the proteins of interest followed by a horseradish […] secondary antibody (Amersham; Braunschweig, Germany). Immunoreactivo bands were visualized by the enhanced chemiluminescencesystem (Amersham; Braunschweig, Germany). The antibodies used in this study were: Anti-caspase-3 (Stratagene, #200021; La Jolla, Calif.), anti-p53 and anti-p21 (Oncogene, #0P43 and #0P64; Cambridge, Mass.), and anti-FLIP (#343002, Calbiochem, San Diego, Calif.). The antibodies were used at the concentrations recommended by the manufacturers.

[2] = test system: COLO205 colon carcinoma cells; test: COLO205 colon carcinoma tumor growth in athymic nude mice (Example 1)
Method: The colon carcinoma cell line COLO205 (available from NCI) were grown and maintained according to the supplier's methods. Briefly, COLO205 cells were cultured in high glucose DMEM/F12 (50:50) media containing 10% fetal bovine serum and 2.0 mM L-Glutamine. […] CPT-11 (Camptosar®) was obtained from Pharmacia & Upjohn.

[3] = test system: DR5 mRNA in HCT116 cells; test: bDNA assay of DR5 mRNA; format: cell-based, human
Method: The specificity of the probes was tested using RNA from in vitro transcription using recombinant DcR1, DcR2, DR4 and DR5 constructs.

[4] = test system: HCT116 colon cancer cells; test: AlamarBlue cell viability assay; format: cell-based, human; details: 24 hours; CPT-11 50 μg/ml, Apo2L/TRAIL 1 μg/ml
Method: (§2) An AlamarBlue™ assay was used to determine the cell viability. HCT116 colon cancer cells (˜10000 cells/well) were incubated overnight in 10% FBS RPMI 1640 medium in 96-well tissue culture plates. […] AlamarBlue™ was added to the wells for the last 6 hours of the 24 hours incubation time. Fluorescence was read using 96-well fluorometer plate reader with an excitation of 530 nm and emission of 590 nm (CytoFluor multi-well plate reader series 4000, PerSeptive Biosystems; Framingham, Mass.). In addition, the Molecular probes Live/Dead^R viability/cytotoxicity kit (Eugene, Oreg.) was used to evaluate the presence of live or dead cells. In these assays, Calcein-Am (4 μM) and ethidium homodimer-1 (2 μM) were added to treated cells 15 minutes before inspecting the cultures under an Axiovert 25 (Zeiss; Thornwood, N.Y.) fluorescence microscope equipped with fluorescein (calcein) and rhodamine (ethidium homodimer-1) filters.

[5] = test system: HCT116 cells; test: Flow cytometric cell cycle analysis, HCT116; format: cell-based, human
Method: Cell cycle analysis was performed via FACS analysis. HCT116 and HUVEC cells were incubated and treated as described in the figure legends. After the treatments, both floating cells in the medium aid live cells in the plate were collected. Cycle TEST PLUS DNA™ reagent kit (Beckon Dickinson; San Jose, Calif.) was used to stain cells according to manufacturer's instruction. The stained cells were analyzed in a FACS sorter (Becton Dickinson). The percentage of apoptotic cells containing a sub-G1 DNA content was quantitated using the CellQuest program. The percentage of live cells in each phase of cell cycle was quantitated using the ModFit LT program.

[6] = test system: p53 protein in HUVEC cells; test: p53 protein western blot, HUVEC; format: cell-based, human; details: normal HUVEC cells; 2 and 24 hours; hydrochloride trihydrate
Method: as §1

[7] = test system: p21 protein in HCT116 cells; test: p21 protein western blot, HCT116; format: cell-based, human
Method: as §1

[8] = test system: HCT116 cells; test: Live/Dead viability/cytotoxicity fluorescence microscopy (calcein-AM, ethidium homodimer-1); format: cell-based, human
Method: as §2

[9] = test system: p21 protein in HUVEC cells; test: p21 protein western blot, HUVEC; format: cell-based, human; details: normal HUVEC cells; 24 hours
Method: as §1

[10] = test system: DR4 mRNA in HCT116 cells; test: bDNA assay of DR4 mRNA; format: cell-based, human
From the text: Total RNA was isolated using the RNA stat-60™ solution (Tel-Test, Inc (Friendsweed, Tex.) according to manufacturer's instruction. The Quantigene bDNA™ signal amplification kit (Chiron diagnostics; East Walpole, Mass.) was used to evaluate mRNA levels. The sequence of GAPDH probe sets was as recommended by the manufacturer. The DR4 probe sets were lined within the region of nucleic acid residues 9 to 582. There were 5 capture probes, 16 labeling probes and 8 blocking probes. The DR5 probe sets were lined within the region of nucleic acid residues 13-591. There were 5 capture probes, 17 labeling probes and 5 blocking probes for DR5. The specificity of the probes was tested using RNA from in vitro transcription using recombinant DcR1, DcR2, DR4 and DR5 constructs. Both DR4 and DR5 probe sets were highly specific for their own RNA transcripts. The signal from each probe sets was linear with the concentrations tested. bDNA assays were performed according to manufacturer's instructions using about 2 μg of total RNA/well.

[11] = test system: HCT116 colon cancer cells; test: Crystal violet cell survival assay; format: cell-based, human; details: SN-38 0.05 microgram/ml; FIG. 15
Method: A crystal violet assay was also used. […] The medium was removed the following day, and the cells were incubated for 24 or 48 hours in the fresh medium containing the various agents noted above. At the end of each treatment, the medium was removed and 100 μl of 0.5% crystal violet solution was added to each well and incubated at room temperature for 10 minutes before washing with water. After the wells were dry, 100 μl of ethanol containing 0.5 N HCL was added to each well. The plates were then read at 540 nm using a 96-well plate reader (Spectra Max 340pc, Molecular Devices Corporation, Sunnyvale, Calif.).

[12] = 24 hours of treatment, without Z-VAD

CCc1c2c(nc3ccc(OC(=O)N4CCC(N5CCCCC5)CC4)cc13)-c1cc3c(c(=O)n1C2)COC(=O)[C@]3(O)CC.Cl.O.O.O [CPT-11, (4S)-4,11-diethyl-4-hydroxy-9-[(4-piperidino-piperidino)carbonyloxyl]-1H-pyrano[3′,4′:6,7]indolizino [1,2-b]quinoline-3,14(4H,12H)dione hydrochloride trihydrate]
p53 protein level [1]: strong and sustained induction of p53 expression; also recorded: increase in p53 protein levels | animals in which tumor growth resumed several days after the treatment period ([2]; 9 mice per group): 9 animals | effect on tumor growth ([2]; s.c. COLO205 tumors, Apo-2L 30 mg/kg/day days 0-4 and 7-11, CPT-11 80 mg/kg/day days 0, 4, 8, 34 days): suppressed tumor growth during the treatment period | increase in DR5 mRNA expression compared with controls ([3]; 2 hours of treatment): not at 2 hours | increase in DR5 mRNA compared with controls [3, 12]: 2.5 fold | induction of DR5 expression by CPT-11 in vitro ([3]; time of exposure, hydrochloride trihydrate): can be observed after two hours exposure or incubation; also recorded: induced in vitro following exposure of cells to 50 microgram/ml CPT-11 for 6 hours | effect on Apo2L/TRAIL-mediated apoptosis (number of live cells) [4]: enhanced Apo2L/TRAIL-mediated apoptosis in vitro | cells in Go-G1 (cell cycle arrest) ([5]; 6 hours, control 30%): 76% | Go-G1 phase ([5]; 24 hours): clear reduction in Go-G1 phase | cells in G2-M phase (arrest) ([5]; 24 hours, control 19%): 43% | apoptosis (sub-G1 DNA content) ([5]; 24 hours, control cells 1%): 9% | p53 protein level [6]: strong and sustained induction of p53 expression; also recorded: increase in p53 protein levels | time profile of changes in p21 protein levels ([7]; CPT-11 incubation): increases as early as 4 hours of treatment | p21 protein level ([7]; HCT116 tumor cells, 24 hours): large induction of p21 protein | morphological changes / cell killing ([8]; 2 hours of treatment): did not show any morphological changes | cell death ([8]; 24 hours of treatment): a few dead cells were clearly present | p21 protein level [9]: large induction of p21 protein | increase in DR4 mRNA compared with controls ([10]; 2 hours of treatment): not at 2 hours | increase in DR4 mRNA compared with controls [10, 12]: 2.5 fold

CCc1c2c(nc3ccc(O)cc13)-c1cc3c(c(=O)n1C2)COC(=O)[C@]3(O)CC [SN38]
tumor cell death with SN38 instead of CPT-11 in combination and sequential treatments with Apo2L/TRAIL [11]: Increased tumor cell death

CC(NC(=O)C(NC(=O)OCc1ccccc1)C(C)C)C(=O)NC(CC(=O)O)C(=O)CF (stereo not drawn) [Z-VAD] (Cbz-Val-Ala-Asp-CH2F; configuration not given here)
increase in DR5 mRNA in the presence of Z-VAD ([3]; 24 hours, with Z-VAD): did not block | effect of caspase inhibitor on Apo2L/TRAIL-mediated apoptosis ([5]; HCT116): effectively blocked Apo2L/TRAIL-mediated apoptosis | increase in DR4 mRNA in the presence of Z-VAD ([10]; 24 hours, with Z-VAD): did not block
